Legend:
[1] = test system: Mycobacterium tuberculosis Erdman (autoluminescent); assay: GRinf, maximum normalised growth rate inhibition (three-drug combination) (unitless (-1 to 1)); higher = less effect (negative = killing)
Method: (§1)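 DiaMOND equipotent three-drug combination dose responses (10 doses, 1.5- or 2-fold spacing, centred on IC90) against autoluminescent M. tuberculosis Erdman in 8 in vitro models. Read-out is OD600, or luminescence for the intracellular and dormancy models, normalised to untreated wells. Hill-fit Einf, AUC25 and GRinf are potency metrics; FIC50 and FIC90 are total Loewe fractional inhibitory concentrations as log2 (negative = synergy).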

[2] = test system: Mycobacterium tuberculosis Erdman (autoluminescent); assay: total FIC50 (Loewe) at 50% inhibition, three-drug combination (log2); higher = more antagonistic
Method: as §1

[3] = test system: Mycobacterium tuberculosis Erdman (autoluminescent); assay: Einf, fitted maximum growth inhibition of three-drug combination (fraction); higher = stronger maximal inhibition
Method: as §1

[4] = test system: Mycobacterium tuberculosis Erdman (autoluminescent); assay: AUC25, normalised area under dose response up to IC25 (three-drug combination) (fraction (0-1)); higher = more potent at low dose
Method: as §1

[5] = test system: Mycobacterium tuberculosis Erdman (autoluminescent); assay: total FIC90 (Loewe) at 90% inhibition, three-drug combination (log2); higher = more antagonistic
Method: as §1

COc1nc2ccc(Br)cc2cc1[C@@H](c1ccccc1)[C@@](O)(CCN(C)C)c1cccc2ccccc12 [bedaquiline] + CC[C@@H](CO)NCCN[C@@H](CC)CO [ethambutol] + CO[C@H]1/C=C/O[C@@]2(C)Oc3c(C)c(O)c4c(O)c(c(/C=N/N5CCN(C)CC5)c(O)c4c3C2=O)NC(=O)/C(C)=C\C=C\[C@H](C)[C@H](O)[C@@H](C)[C@@H](O)[C@@H](C)[C@H](OC(C)=O)[C@@H]1C [rifampicin]
Details | AUC25, [4] | Einf, [3] | GRinf, [1] | total FIC50, [2] | total FIC90, [5]
in vitro model: acidic pH 5.7, time point: constant (~7 days, model-specific) | 0.101 | 0.925 | -0.517 | 0.255 | –
in vitro model: acidic pH 5.7, time point: terminal (~4-5 doublings, model-specific) | 0.0469 | 0.975 | -0.16 | 0.433 | -0.353
in vitro model: intracellular J774, time point: constant = terminal | – | 0.946 | -0.188 | – | -2.17

Details | AUC25, [4] | Einf, [3] | GRinf, [1] | total FIC50, [2] | total FIC90, [5]
in vitro model: butyrate, time point: constant (~7 days, model-specific) | 0.0854 | 0.947 | -0.116 | 0.298 | –
in vitro model: butyrate, time point: terminal (~4-5 doublings, model-specific) | 0.0653 | 0.977 | -0.0944 | 0.293 | -0.34
in vitro model: cholesterol 0.05 mM, time point: constant (~7 days, model-specific) | 0.0934 | 0.696 | -0.186 | 0.99 | –
in vitro model: cholesterol 0.05 mM, time point: terminal (~4-5 doublings, model-specific) | 0.0802 | 0.866 | -0.177 | 0.757 | –
in vitro model: cholesterol-high 0.2 mM, time point: constant (~7 days, model-specific) | 0.0442 | 0.972 | -0.609 | 0.869 | –
in vitro model: cholesterol-high 0.2 mM, time point: terminal (~4-5 doublings, model-specific) | 0.0471 | 0.999 | -0.732 | 0.649 | 0.577
in vitro model: dormancy (butyrate + nitrate, low O2), time point: constant (~7 days, model-specific) | 0.0847 | 0.848 | 0.506 | 0.302 | –
in vitro model: dormancy (butyrate + nitrate, low O2), time point: terminal (~4-5 doublings, model-specific) | 0.0367 | 0.985 | -0.0366 | 0.467 | -0.773
in vitro model: standard 7H9 glycerol, time point: constant = terminal | 0.0718 | 0.936 | -0.0564 | 0.162 | –
in vitro model: valerate, time point: constant (~7 days, model-specific) | 0.0696 | 0.904 | -0.043 | 0.575 | –
in vitro model: valerate, time point: terminal (~4-5 doublings, model-specific) | 0.0304 | 0.944 | -0.0659 | 0.707 | -0.531

NNC(=O)c1ccncc1 [isoniazid] + COc1c(N2C[C@@H]3CCCN[C@@H]3C2)c(F)cc2c(=O)c(C(=O)O)cn(C3CC3)c12 [moxifloxacin] + O=[N+]([O-])c1cn2c(n1)OC[C@@H](OCc1ccc(OC(F)(F)F)cc1)C2 [pretomanid]
Details | AUC25, [4] | Einf, [3] | GRinf, [1] | total FIC50, [2] | total FIC90, [5]
in vitro model: acidic pH 5.7, time point: constant (~7 days, model-specific) | 0.105 | 0.752 | -0.684 | 4.5 | –
in vitro model: acidic pH 5.7, time point: terminal (~4-5 doublings, model-specific) | 0.0907 | 0.959 | -0.532 | 4.46 | 4.49
in vitro model: intracellular J774, time point: constant = terminal | – | 0.994 | -0.481 | – | 0.579

Details | AUC25, [4] | Einf, [3] | GRinf, [1] | total FIC50, [2] | total FIC90, [5]
in vitro model: butyrate, time point: constant (~7 days, model-specific) | 0.0536 | 0.929 | -0.0807 | 2.83 | 2.02
in vitro model: butyrate, time point: terminal (~4-5 doublings, model-specific) | 0.0441 | 0.974 | -0.0869 | 2.53 | 2.38
in vitro model: cholesterol 0.05 mM, time point: constant (~7 days, model-specific) | 0.105 | 0.746 | -0.26 | 1.75 | –
in vitro model: cholesterol 0.05 mM, time point: terminal (~4-5 doublings, model-specific) | 0.0994 | 0.957 | -0.35 | 8.24 | 1.68
in vitro model: cholesterol-high 0.2 mM, time point: constant (~7 days, model-specific) | 0.0779 | 0.892 | -0.144 | 0.366 | –
in vitro model: cholesterol-high 0.2 mM, time point: terminal (~4-5 doublings, model-specific) | 0.0578 | 0.977 | -0.646 | 0.407 | 0.342
in vitro model: dormancy (butyrate + nitrate, low O2), time point: constant (~7 days, model-specific) | 0.0796 | 0.873 | 0.251 | 2.42 | 2.29
in vitro model: dormancy (butyrate + nitrate, low O2), time point: terminal (~4-5 doublings, model-specific) | 0.0682 | 0.986 | -0.111 | 2.34 | 2.6
in vitro model: standard 7H9 glycerol, time point: constant = terminal | 0.0818 | 0.979 | -0.202 | 1.14 | 0.349
in vitro model: valerate, time point: constant (~7 days, model-specific) | 0.107 | 0.898 | -0.0314 | 2.35 | –
in vitro model: valerate, time point: terminal (~4-5 doublings, model-specific) | 0.071 | 0.948 | -0.0412 | 2.43 | 2.4

COc1nc2ccc(Br)cc2cc1[C@@H](c1ccccc1)[C@@](O)(CCN(C)C)c1cccc2ccccc12 [bedaquiline] + NNC(=O)c1ccncc1 [isoniazid] + O=[N+]([O-])c1cn2c(n1)OC[C@@H](OCc1ccc(OC(F)(F)F)cc1)C2 [pretomanid]
Details | AUC25, [4] | Einf, [3] | GRinf, [1] | total FIC50, [2] | total FIC90, [5]
in vitro model: acidic pH 5.7, time point: constant (~7 days, model-specific) | 0.13 | 0.923 | -0.789 | 0.219 | –
in vitro model: acidic pH 5.7, time point: terminal (~4-5 doublings, model-specific) | 0.108 | 0.988 | -0.439 | 0.209 | 0.765
in vitro model: intracellular J774, time point: constant = terminal | – | 0.996 | -0.588 | – | 0.892

Details | AUC25, [4] | Einf, [3] | GRinf, [1] | total FIC50, [2] | total FIC90, [5]
in vitro model: butyrate, time point: constant (~7 days, model-specific) | 0.0753 | 0.947 | -0.112 | 1.04 | 1.16
in vitro model: butyrate, time point: terminal (~4-5 doublings, model-specific) | 0.0523 | 0.975 | -0.0872 | 0.897 | 0.889
in vitro model: cholesterol 0.05 mM, time point: constant (~7 days, model-specific) | 0.0895 | 0.722 | -0.21 | 0.775 | –
in vitro model: cholesterol 0.05 mM, time point: terminal (~4-5 doublings, model-specific) | 0.0672 | 0.924 | -0.246 | 6.17 | 0.608
in vitro model: cholesterol-high 0.2 mM, time point: constant (~7 days, model-specific) | 0.0717 | 0.887 | -0.196 | 0.37 | –
in vitro model: cholesterol-high 0.2 mM, time point: terminal (~4-5 doublings, model-specific) | 0.0327 | 0.992 | -0.535 | 0.584 | 0.0623
in vitro model: dormancy (butyrate + nitrate, low O2), time point: constant (~7 days, model-specific) | 0.0674 | 0.924 | 0.224 | -0.188 | -0.985
in vitro model: dormancy (butyrate + nitrate, low O2), time point: terminal (~4-5 doublings, model-specific) | 0.0671 | 0.994 | -0.159 | -0.769 | -0.523
in vitro model: standard 7H9 glycerol, time point: constant = terminal | 0.0757 | 0.966 | -0.103 | 0.177 | 0.0648
in vitro model: valerate, time point: constant (~7 days, model-specific) | 0.129 | 0.886 | -0.333 | 0.632 | 1.13
in vitro model: valerate, time point: terminal (~4-5 doublings, model-specific) | 0.109 | 0.953 | -0.161 | 0.661 | 1.97

From the supplement of paper PMC8617591
